Results taken from US9408813B2, “Small-molecule inhibitors of dengue virus proteases” (THE BOARD OF REGENTS OF THE UNIVERSITY OF TEXAS SYSTEM, priority 2013, dated 2016).
Like-named read-outs stand apart in the source and are kept apart here.

Molecular target: T1, DENV NS2B-NS3 protease (Dengue virus type 2, UniProt P29990)
T1 construct: plasmid construct CF40-Gly-NS3pro185; made in house; host or cells: E. coli
Experiment: NS2B-NS3 protease steady-state kinetic inhibition assay (Boc-GRR-AMC substrate, Dynafit global fit)
Assay type: biochemical, DEN2V (dengue virus serotype 2)
Details: 100 nM NS2B-NS3, cleavage buffer pH 9.5, 25° C., two inhibitor concentrations
Method: The DEN2V protease (plasmid construct CF40-Gly-NS3pro185 (Li et al., The Journal of Biological Chemistry, 280, 28766-28774, 2005)) was expressed in E. coli largely following the previously described protocol (Li et al., The Journal of Biological Chemistry, 280, 28766-28774, 2005), although cell growth was continued for 6 hrs at 25° C. following addition of 0.4 mM IPTG (isopropyl-D-thiogalactopyranoside). Purification was as described previously (Li et al., The Journal of Biological Chemistry, 280, 28766-28774, 2005) using metal affinity chromatography. Purified, concentrated NS2B-NS3pro was stored at −80° C. in cleavage buffer (200 mM Tris pH 9.5, 20% glycerol). The activity of the dengue protease was not impacted by a freeze/thaw cycle (data not shown).
Small molecules identified by virtual screening as potential DEN2V protease inhibitors were tested for inhibition activity using NS2B-NS3 protease steady-state kinetic assays as described previously (Li et al., The Journal of Biological Chemistry, 280, 28766-28774, 2005). Briefly, compounds identified in virtual screening experiments were received from established chemical vendors and tested for solubility at 10 mM in DMSO and upon 100-fold dilution from DMSO into cleavage buffer (i.e., 100 μM final compound concentration in 1% DMSO). […] Sequential 10-fold serial dilutions were used to determine the limits of solubility in cleavage buffer as necessary.
Preliminary single-point inhibition assays (Li et al., The Journal of Biological Chemistry, 280, 28766-28774, 2005) were used to check the inhibition activity of compounds using 100 nM NS2B-NS3 and 100 μM substrate Boc-GRR-AMC in cleavage buffer for 30 minutes at 25° C. Fluorescence measurements (lem=465 nm, lex=380 nm) were performed in duplicate on a Fluorolog FL3-22 spectrofluorometer (Horiba Jobin Yvon) and corrected for compound absorption and emission. […] Two inhibitor concentrations were tested. Fluorescence measurements were recorded at 5 minutes intervals from 0 to 30 minutes; fluorescence intensities were converted to AMC product concentrations using calibration curves established with each compound concentration. Each kinetic study was performed in duplicate, and all experiments were repeated three times to ensure all measured parameters were reproducible in independent experiments. Initial velocities at each substrate concentration were calculated from linear curve fits of AMC production per time. The program Dynafit (Biokin, Watertown, Mass.) (Kuzmic, Anal. Biochem., 237, 260-273, 1996) was used to determine Michalen-Menten inhibition model and kinetic parameters that produced the best global fits to the measured velocity versus substrate kinetic data.
These compounds were advanced to detailed kinetic inhibition assays to determine mechanisms of inhibition and inhibition constants. All experiments were performed using two different inhibitor concentrations and a no inhibitor control. Kinetic parameters and inhibition constants were calculated using a generalized Michaelis-Menten model (FIG. 4) and global fitting to all collected velocity versus substrate concentration data (Table 1). […] Further study will be required to determine whether a particular mechanism of inhibition might be advantageous in regard to efficacy against virus replication and/or delay of escape mutants.

[1] = read-out: Inhibition constant Ki1 (competitive component, binding to enzyme)
[2] = read-out: Inhibition constant Ki2 (binding to enzyme-substrate ES complex)
[3] = Inhibition constant Ki1 (competitive component, binding to enzyme)
[4] = read-out: Inhibition constant Ki3 (binding to ES2 complex)

T1 sequence (P29990 1476-1653): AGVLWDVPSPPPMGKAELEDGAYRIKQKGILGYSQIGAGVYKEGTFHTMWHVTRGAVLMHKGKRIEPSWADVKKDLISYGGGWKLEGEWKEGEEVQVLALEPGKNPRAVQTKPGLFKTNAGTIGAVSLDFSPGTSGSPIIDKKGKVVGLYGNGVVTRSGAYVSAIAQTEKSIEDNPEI

In the case of `c1ccc2c(-c3nnc(-c4ccc5nccnc5c4)o3)cccc2c1` [ZINC00156657], the Ki [1] is reported as 95 µM and the Ki [2] is reported as 45 µM.

Compound `NS(=O)(=O)c1cccc(-c2ccc([C@H]3Nc4ccccc4-c4nc5ccccc5n43)o2)c1` [ZINC01032664] has a Ki [2] of 56 µM.

`Cn1c(=O)c2cc3ccccc3nc2c2c(=O)n(-c3ccccc3)c(=O)n(-c3ccccc3)c21` [ZINC01042004] showed a Ki [2] of 28 µM.

Work on `c1ccc(CSc2nnc3nc4c5ccccc5c5ccccc5c4nn23)cc1` [ZINC03120327] yielded a Ki [3] of 42 µM and a Ki (Inhibition constant Ki2 (binding to enzyme-substrate ES complex)) of 21 µM.

Work on `O=C1[C@H]2CSC3(C(=O)c4ccccc4C3=O)N2C(=O)[C@H]2CSC3(C(=O)c4ccccc4C3=O)N12` [ZINC03129319] yielded a Ki [3] of 92 µM and a Ki (Inhibition constant Ki3 (binding to ES2 complex)) of 20 µM.

For `O=C1Cc2ccc(F)cc2C[C@@H]1C1=Cc2ccc(F)cc2CC1` [ZINC04321905], the Ki [1] was 85 µM.

Work on `Cc1nn(-c2ccccc2)nc1C(=O)Nc1nnc(Sc2ccnc3cc(Cl)ccc23)s1` [ZINC08647752] yielded a Ki [1] of 60 µM and a Ki [4] of 14 µM.

Compound `O=C(NNC(=NS(=O)(=O)c1ccccc1)NNC(=O)c1cccc(Cl)c1)c1cccc(Cl)c1` [ZINC12339756] has a Ki [4] of 64 µM.

`Cc1ccc(-n2ncc3c2CC(C)(C)C[C@@H]3NC(=O)c2cn(C)c3ccccc3c2=O)cc1` [ZINC12702527] was tested, and the Ki [1] was 288 µM and the Ki [2] was 421 µM.

For `O=C(Nc1cccc(-c2nnc(Cc3ccc4c(c3)OCO4)o2)c1)Nc1ccc2c(c1)CCC2` [ZINC21359030], the Ki [2] was 4 µM.

`Cc1ccc(S(=O)(=O)Nc2ccc(Cn3cnc(-c4nc(-c5cccc(C)c5)no4)c3)cc2)cc1` [ZINC32974777] was tested, and the Ki [1] was 106 µM and the Ki [2] was 21 µM.

`Cc1ccn2c(=O)cc(COc3cc(NC(=O)Nc4ccc5c(c4)OCCO5)ccc3C)nc2c1` [ZINC33068105] showed a Ki [1] of 39 µM and a Ki [2] of 4 µM.
